Experiments:
[1] = target: T1, CYP 2C19 (Homo sapiens, UniProt P33261); assay: CYP inhibition in human liver microsomes, 2C19; format: in vitro ADME; details: pH 7.4, @ 10 μM concn
T1 construct: from tissue; host or cells: human liver microsomes
Method: (§1) CYP Inhibition Studies: CYP inhibition studies were performed with test compounds, at two concentrations ([…] and 10 μM), using human liver microsomes (Yao, M., Zhu, M., Sinz, M. W., Zhang, H., Humphreys, W. F., Rodrigues, A. D and Dai, R., Journal of Pharmaceutical and Biomedical Analysis, 2007, 44, 211-223; Walsky, R. L and Obach, R. S., Drug Metab. Dispos., 2004, 32, 647-660). Human liver microsomes were mixed with 100 mM phosphate buffer (pH 7.4) and probe substrate and warmed to […] in microcentrifuge tubes. Aliquots of this mixture (499 μL) were transferred to each pre-labeled microcentrifuge tubes, followed by addition of the 1 μL of inhibitors (test compound/CYP-specific positive control inhibitor) or control solvent (DMSO). Aliquots of this mixture (90 μL) were transferred to each pre-labeled microcentrifuge tubes in duplicate. Final solvent concentrations were 0.2% (v/v) or less. Incubations were commenced with the addition of 10 μL NADPH stock (assay concentration, 1 mM) to a final incubation volume of 100 μL and incubated in shaking water bath (at 37° C. and 100 rpm), for the period defined in Tables 1. Incubations were terminated by addition of 400 μL of termination solvent (CH3CN) containing internal standard. The terminated samples were vortex-mixed, centrifuged at 10000 rpm for 5 min and supernatant transferred into HPLC vials for LC-MS/MS analysis to monitor metabolites produced by marker CYP reactions. […] Animals

[2] = target: T2, CYP 2C8 (Homo sapiens, UniProt P10632); assay: CYP inhibition in human liver microsomes, 2C8; format: in vitro ADME; details: pH 7.4, @ 10 μM concn
T2 construct: from tissue; host or cells: human liver microsomes
T2 sequence (P10632 1-490): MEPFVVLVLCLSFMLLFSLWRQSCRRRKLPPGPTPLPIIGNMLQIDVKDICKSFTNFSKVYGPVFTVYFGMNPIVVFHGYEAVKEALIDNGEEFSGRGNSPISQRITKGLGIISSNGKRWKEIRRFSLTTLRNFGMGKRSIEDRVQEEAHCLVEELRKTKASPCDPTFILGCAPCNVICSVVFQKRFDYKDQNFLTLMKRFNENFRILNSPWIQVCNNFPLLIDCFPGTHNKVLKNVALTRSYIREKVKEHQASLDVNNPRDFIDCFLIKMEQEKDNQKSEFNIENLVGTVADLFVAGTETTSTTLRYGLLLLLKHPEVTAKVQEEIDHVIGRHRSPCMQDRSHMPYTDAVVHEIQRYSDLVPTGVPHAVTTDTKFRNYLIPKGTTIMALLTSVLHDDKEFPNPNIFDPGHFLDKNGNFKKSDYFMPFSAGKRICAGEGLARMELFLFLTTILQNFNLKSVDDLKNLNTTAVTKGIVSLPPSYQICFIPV
Method: as §1

[3] = target: T3, CYP 3A4 (Homo sapiens, UniProt P08684); assay: CYP inhibition in human liver microsomes, 3A4; format: in vitro ADME; details: pH 7.4, @ 10 μM concn
T3 construct: from tissue; host or cells: human liver microsomes
T3 sequence (P08684 whole entry): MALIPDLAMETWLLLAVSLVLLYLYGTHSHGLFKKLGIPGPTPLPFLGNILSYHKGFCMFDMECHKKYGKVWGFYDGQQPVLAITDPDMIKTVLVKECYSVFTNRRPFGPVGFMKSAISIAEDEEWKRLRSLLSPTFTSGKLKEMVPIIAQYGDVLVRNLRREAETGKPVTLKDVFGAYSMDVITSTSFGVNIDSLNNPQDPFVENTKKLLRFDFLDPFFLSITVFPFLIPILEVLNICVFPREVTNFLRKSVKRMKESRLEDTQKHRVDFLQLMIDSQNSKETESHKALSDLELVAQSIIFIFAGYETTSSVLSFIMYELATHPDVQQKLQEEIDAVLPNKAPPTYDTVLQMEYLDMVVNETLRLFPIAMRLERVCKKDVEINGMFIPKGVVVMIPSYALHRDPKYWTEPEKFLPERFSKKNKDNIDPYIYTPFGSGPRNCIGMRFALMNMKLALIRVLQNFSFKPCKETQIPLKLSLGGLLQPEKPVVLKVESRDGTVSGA
Method: as §1

[4] = target: T4, CYP 1A2 (Homo sapiens, UniProt P05177); assay: CYP inhibition in human liver microsomes, 1A2; format: in vitro ADME; details: pH 7.4, @ 10 μM concn
T4 construct: from tissue; host or cells: human liver microsomes
T4 sequence (P05177 1-516): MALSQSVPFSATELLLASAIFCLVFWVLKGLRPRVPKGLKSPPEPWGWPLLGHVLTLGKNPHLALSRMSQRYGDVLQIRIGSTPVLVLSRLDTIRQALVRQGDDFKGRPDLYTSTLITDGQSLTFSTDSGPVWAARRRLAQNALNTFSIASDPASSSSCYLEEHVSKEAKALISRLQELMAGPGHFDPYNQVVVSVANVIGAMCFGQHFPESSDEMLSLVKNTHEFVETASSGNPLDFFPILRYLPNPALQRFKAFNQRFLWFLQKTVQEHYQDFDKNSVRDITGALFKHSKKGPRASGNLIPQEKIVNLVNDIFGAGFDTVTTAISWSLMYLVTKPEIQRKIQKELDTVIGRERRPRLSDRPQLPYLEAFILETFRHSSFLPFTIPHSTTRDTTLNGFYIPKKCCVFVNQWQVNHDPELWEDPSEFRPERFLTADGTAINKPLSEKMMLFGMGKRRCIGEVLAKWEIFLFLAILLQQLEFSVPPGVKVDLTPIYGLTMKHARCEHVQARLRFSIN
Method: as §1

[5] = target: T5, CYP 2D6 (Homo sapiens, UniProt P10635); assay: CYP inhibition in human liver microsomes, 2D6; format: in vitro ADME; details: pH 7.4, @ 10 μM concn
T5 construct: from tissue; host or cells: human liver microsomes
T5 sequence (P10635 whole entry): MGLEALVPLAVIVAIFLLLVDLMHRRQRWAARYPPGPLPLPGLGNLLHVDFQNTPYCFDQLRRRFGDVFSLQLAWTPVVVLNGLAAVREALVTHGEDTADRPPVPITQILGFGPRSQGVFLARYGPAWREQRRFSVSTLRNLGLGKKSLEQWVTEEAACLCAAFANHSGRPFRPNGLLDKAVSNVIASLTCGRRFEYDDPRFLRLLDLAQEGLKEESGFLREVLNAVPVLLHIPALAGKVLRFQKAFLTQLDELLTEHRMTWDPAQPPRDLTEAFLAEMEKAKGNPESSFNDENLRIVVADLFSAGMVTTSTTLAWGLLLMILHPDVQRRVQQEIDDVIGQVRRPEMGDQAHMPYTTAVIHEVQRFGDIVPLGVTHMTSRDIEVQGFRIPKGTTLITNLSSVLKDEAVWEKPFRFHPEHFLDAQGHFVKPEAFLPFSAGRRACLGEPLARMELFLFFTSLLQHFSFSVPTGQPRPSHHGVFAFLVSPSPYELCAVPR
Method: as §1

[6] = target: T6, recombinant purified human BTK (Homo sapiens, UniProt Q06187); assay: In vitro BTK kinase assay on ADP Glo platform; format: biochemical; details: 2 hr room temperature, read-out: In-vitro BTK inhibitory activity: IC50
T6 construct: purchased SignalChem, USA
T6 sequence (Q06187 whole entry): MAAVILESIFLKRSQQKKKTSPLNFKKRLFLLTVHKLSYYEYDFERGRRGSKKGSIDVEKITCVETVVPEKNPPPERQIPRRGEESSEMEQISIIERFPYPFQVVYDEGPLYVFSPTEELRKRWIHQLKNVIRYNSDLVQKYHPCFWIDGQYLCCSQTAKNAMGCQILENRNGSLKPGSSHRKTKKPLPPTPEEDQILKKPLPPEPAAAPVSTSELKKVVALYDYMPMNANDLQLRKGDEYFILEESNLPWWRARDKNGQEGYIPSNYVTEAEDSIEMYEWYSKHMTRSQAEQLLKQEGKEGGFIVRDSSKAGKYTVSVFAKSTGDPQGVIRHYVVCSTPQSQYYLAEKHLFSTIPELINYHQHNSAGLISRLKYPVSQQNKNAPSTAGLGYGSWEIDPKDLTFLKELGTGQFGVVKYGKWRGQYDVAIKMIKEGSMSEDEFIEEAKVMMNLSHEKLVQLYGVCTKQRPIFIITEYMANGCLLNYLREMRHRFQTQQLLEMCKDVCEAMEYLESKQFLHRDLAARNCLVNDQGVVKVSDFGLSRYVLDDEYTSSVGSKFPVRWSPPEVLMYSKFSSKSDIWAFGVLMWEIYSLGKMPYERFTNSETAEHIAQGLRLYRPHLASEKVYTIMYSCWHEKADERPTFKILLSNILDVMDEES
Method: Testing of Compounds of the Invention Biological Studies: In vitro BTK Inhibitory Activity Assay:
In vitro BTK inhibitory activity of test compounds were screened using BTK kinase assay on ADP Glo platform (Li, H., Totoritis, R. D., Lor, L. A., Schwartz, B., Caprioli, P., Jurewicz, A. J and Zhang, G., Assay Drug Dev. Technol., 2009, 7(6), 598-605). Briefly, fixed amount of recombinant purified human BTK (3 ng/reaction from SignalChem, USA) were incubated with increasing concentration of test compounds, in 1× kinase reaction buffer (40 mM Tris-Cl, pH7.5, 20 mM MgCl2, 2 mM MnCl2, 0.1 mg/ml BSA and 50 μM DTT). Enzymatic reaction was initiated by adding a substrate cocktail containing 50 µM of ATP (final concentration) and […] of polyGln4Tyr1 (Signal Chem) in total 25 μl of reaction, in round bottom white 96 well plate. The reaction mixture was incubated at room temperature for 2 hr. After 2 hr of incubation, 10 μl of the reaction mix was mixed with […] of ADP Glo reagent, in another round bottom white 96 well plate and incubated at room temperature for 40 min. This was followed by addition of kinase detection reagent (20 μl per reaction) and incubation at room temperature for 30 min. Finally, plate was read for luminescence at an integration time of 500 millisecond per well. Data were plotted taking Enzyme with no inhibitor set as the 100% kinase activity and for dose response curve, % Kinase activity was plotted against conc on Log scale and IC50 was determined by non linear curve fitting method using GraphPad Prism software 6. The in vitro BTK inhibitory activity (IC50) for representative compounds are listed in […]

[7] = target: T7, CYP 2C9 (Homo sapiens, UniProt P11712); assay: CYP inhibition in human liver microsomes, 2C9; format: in vitro ADME; details: pH 7.4, @ 10 μM concn
T7 construct: from tissue; host or cells: human liver microsomes
T7 sequence (P11712 whole entry): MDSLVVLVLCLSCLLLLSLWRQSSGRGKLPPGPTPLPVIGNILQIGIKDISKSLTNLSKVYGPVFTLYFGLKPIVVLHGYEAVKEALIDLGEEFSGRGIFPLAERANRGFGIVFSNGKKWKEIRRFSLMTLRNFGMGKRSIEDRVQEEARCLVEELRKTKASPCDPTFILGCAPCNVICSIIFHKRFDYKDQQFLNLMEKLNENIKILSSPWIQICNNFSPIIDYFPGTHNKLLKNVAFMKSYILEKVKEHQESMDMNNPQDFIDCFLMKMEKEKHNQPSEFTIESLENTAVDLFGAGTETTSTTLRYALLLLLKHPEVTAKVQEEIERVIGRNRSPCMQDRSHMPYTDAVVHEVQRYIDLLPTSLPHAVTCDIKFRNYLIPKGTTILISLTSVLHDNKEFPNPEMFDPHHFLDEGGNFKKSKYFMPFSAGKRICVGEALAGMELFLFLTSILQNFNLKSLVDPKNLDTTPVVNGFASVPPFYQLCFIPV
Method: as §1

T1 sequence (P33261 whole entry): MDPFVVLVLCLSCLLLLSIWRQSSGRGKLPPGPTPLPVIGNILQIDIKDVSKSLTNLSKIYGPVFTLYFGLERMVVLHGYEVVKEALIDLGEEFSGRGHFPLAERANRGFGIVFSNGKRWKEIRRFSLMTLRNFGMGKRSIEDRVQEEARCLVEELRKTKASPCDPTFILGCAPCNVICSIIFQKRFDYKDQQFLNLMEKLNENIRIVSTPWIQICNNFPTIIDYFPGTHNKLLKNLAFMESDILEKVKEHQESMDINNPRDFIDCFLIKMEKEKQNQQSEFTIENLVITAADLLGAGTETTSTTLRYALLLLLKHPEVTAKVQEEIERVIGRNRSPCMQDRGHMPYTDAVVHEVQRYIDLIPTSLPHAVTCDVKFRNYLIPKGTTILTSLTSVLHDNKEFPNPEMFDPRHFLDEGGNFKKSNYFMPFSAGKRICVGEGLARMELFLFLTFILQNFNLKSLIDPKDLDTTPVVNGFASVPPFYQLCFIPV

Structure (SMILES)	inhibition at 10 μM [1] [%]	inhibition at 10 μM [2] [%]	inhibition at 10 μM [3] [%]	inhibition at 10 μM [4] [%]	inhibition at 10 μM [5] [%]	IC50 [6] [nM]	inhibition at 10 μM [7] [%]
C=CC(=O)N1CC2CC(n3nc(-c4ccc(Oc5ccccc5)cc4)c4c(N)ncnc43)CC2C1 (centres unmarked) [Compound 1, 1-(5-(4-amino-3-(4-phenoxyphenyl)-1H-pyrazolo[3,4-d]pyrimidin-1-yl)hexahydrocyclopenta[c]pyrrol-2(1H)-yl)prop-2-en-1-one]	< 50	< 50	< 50	< 50	< 50	1.3	< 50
C=CC(=O)N1CC2CC(n3nc(-c4ccc5ncsc5c4)c4c(N)ncnc43)CC2C1 (centres unmarked) [Compound 2, 1-(5-(4-amino-3-(benzo[d]thiazol-6-yl)-1H-pyrazolo[3,4-d]pyrimidin-1-yl)hexahydrocyclopenta[c]pyrrol-2(1H)-yl)prop-2-en-1-one]	< 50	< 50	< 50	< 50	< 50	1.1	< 50
C=CC(=O)N1CC2CN(c3ccc(Cn4nc(-c5ccc(Oc6ccccc6)cc5)c5c(N)ncnc54)cn3)CC2C1 (centres unmarked) [Compound 3, 1-(5-(5-((4-amino-3-(4-phenoxyphenyl)-1H-pyrazolo[3,4-d]pyrimidin-1-yl)methyl)pyridin-2-yl)hexahydropyrrolo[3,4-c]pyrrol-2(1H)-yl)prop-2-en-1-one]	< 50	< 50	< 50	< 50	< 50	8	> 50
C=CC(=O)N1CC2CN(CCn3nc(-c4ccc(Oc5ccccc5)cc4)c4c(N)ncnc43)CC2C1 (centres unmarked) [Compound 4, 1-(5-(2-(4-amino-3-(4-phenoxyphenyl)-1H-pyrazolo[3,4-d]pyrimidin-1-yl)ethyl)hexahydropyrrolo[3,4-c]pyrrol-2(1H)-yl)prop-2-en-1-one]	< 50	< 50	< 50	< 50	< 50	2	< 50
C=CC(=O)N1CC2CC(n3nc(-c4ccc5nc(C)sc5c4)c4c(N)ncnc43)CC2C1 (centres unmarked) [Compound 5, 1-(5-(4-amino-3-(2-methylbenzo[d]thiazol-6-yl)-1H-pyrazolo[3,4-d]pyrimidin-1-yl)hexahydrocyclopenta[c]pyrrol-2(1H)-yl)prop-2-en-1-one]	< 50	< 50	> 50	< 50	< 50	8	< 50
C=CC(=O)N1CC2CC(n3nc(-c4ccc5sccc5c4)c4c(N)ncnc43)CC2C1 (centres unmarked) [Compound 6, 1-(5-(4-amino-3-(benzo[b]thiophen-5-yl)-1H-pyrazolo[3,4-d]pyrimidin-1-yl)hexahydrocyclopenta[c]pyrrol-2(1H)-yl)prop-2-en-1-one]	< 50	< 50	< 50	< 50	< 50	1.7	< 50
C=CC(=O)N1CC2CC(n3nc(-c4ccc5c(c4)CCS5)c4c(N)ncnc43)CC2C1 (centres unmarked) [Compound 7, 1-(5-(4-amino-3-(2,3-dihydrobenzo[b]thiophen-5-yl)-1H-pyrazolo [3,4-d]pyrimidin-1-yl)hexahydrocyclopenta[c]pyrrol-2(1H)-yl)prop-2-en-1-one]	< 50	< 50	> 50	< 50	< 50	6	> 50
C=CC(=O)N1CC2CC(n3nc(-c4ccc5c(c4)oc4ccccc45)c4c(N)ncnc43)CC2C1 (centres unmarked) [Compound 8, 1-(5-(4-amino-3-(dibenzo[b,d]furan-3-yl)-1H-pyrazolo[3,4-d]pyrimidin-1-yl)hexahydrocyclopenta[c]pyrrol-2(1H)-yl)prop-2-en-1-one]	> 50	< 50	< 50	< 50	< 50	4	< 50
C=CC(=O)N1CC2CC(n3nc(-c4ccc5nc(NC(C)=O)sc5c4)c4c(N)ncnc43)CC2C1 (centres unmarked) [Compound 9, N-(6-(1-(2-acryloyloctahydrocyclopenta[c]pyrrol-5-yl)-4-amino-1H-pyrazolo [3,4-d]pyrimidin-3-yl)benzo[d]thiazol-2-yl)acetamide]	< 50	> 50	> 50	< 50	< 50	28	> 50
C=CC(=O)N1CC2CC(n3nc(-c4ccc5nc(OC)sc5c4)c4c(N)ncnc43)CC2C1 (centres unmarked) [Compound 10, 1-(5-(4-amino-3-(2-methoxybenzo[d]thiazol-6-yl)-1H-pyrazolo[3,4-d]pyrimidin-1-yl)hexahydrocyclopenta[c]pyrrol-2(1H)-yl)prop-2-en-1-one]	< 50	> 50	> 50	< 50	> 50	25	< 50
CN(C)C/C=C/C(=O)N1CC2CC(n3nc(-c4ccc(Oc5ccccc5)cc4)c4c(N)ncnc43)CC2C1 (centres unmarked) [Compound 48, (E)-1-(5-(4-amino-3-(4-phenoxyphenyl)-1H-pyrazolo[3,4-d]pyrimidin-1-yl)hexahydrocyclopenta[c]pyrrol-2(1H)-yl)-4-(dimethylamino)but-2-en-1-one]						50	

From patent US9840509B2, “Heterocyclic compounds” (CADILA HEALTHCARE LIMITED, priority 2014, dated 2017)
